Experimental data published in BindingDB's records for doi:10.1021/jm00001a010 (University of Massachusetts Medical School, 1995).

Target: Thymidine kinase (Herpes simplex virus type 1)
Test: Binding affinity towards HSV-1 thymidine kinase was determined

Ki: 2.06 µM
SMILES: Nc1nc2c(ncn2CCCCO)c(=O)[nH]1 [2-amino-9-(4-hydroxybutyl)-6,9-dihydro-3H-purin-6-one]
